Laboratory results published in patent US6930314B2, “Light detection device” (Molecular Devices Corporation, priority 2000, dated 2005).

Test system: CHO ml cells
Assay: Calcium flux assay
Format: cell-based
Conditions: CHO ml cells in 384-well microplate loaded with fluorescent calcium ion indicator; carbachol 10 nM, 100 nM, 10 μM; single selected well, frames about two seconds apart
Experimental: This example, illustrated in FIGS. 6 and 7, describes calcium flux assays conducted using an apparatus constructed in accordance with aspects of the invention.
Cultured CHO ml cells were grown overnight in a 384-well microplate, then loaded with a cell-permeant form of a fluorescent calcium ion indicator for 1 hour. […] The manual addition of carbachol (a calcium flux stimulant) in 10 nM, 100 nM, and 10 μM concentrations was used to mimic small, medium, and large sustained responses.
The figure records the average light intensity in a single selected well as a function of frame number (each frame taken approximately two seconds apart), where the selected well was one to which carbachol was added.
Here, no sustained increase in signal strength was observed, although there were small fluctuations due to shot-to-shot variations in illumination laser intensity.

For `C[N+](C)(C)CCOC(N)=O` [carbachol], the “fluorescence signal (calcium flux response) after addition of carbachol” value was “rapid increase in the fluorescence signal over the first few frames, with a slow decay”.
